In PubChem BioAssay (NCI) one finds TGI data, which are given here for eight molecules.

Molecules are shown by their SMILES.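 Assay format: 96-well plates, 48-hour exposure. The concentration for full growth arrest is given as TGI.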 Bounds are passed on as bounds.

The first experiment has as its system RXF-631 renal. In words: inhibition of tumour cell growth, NCI panel, 48 h.
The molecule `CN(C)C(=O)CC(C(=O)O)c1c[nH]c2ccccc12` (stereo not drawn) showed a TGI of over 100 µM.

`Cc1cc2c(c3oc(C(O)(CO)C4CO4)cc(=O)c13)C(=O)c1c(O)cccc1C2=O` (stereo not drawn) registered a TGI of over 100 µM.

`O=[N+]([O-])c1ccc(NC2OCC(O)C(O)C2O)cc1` (stereo not drawn) came in with a TGI of over 100 µM.

In the case of `COc1ccc(/C(Cl)=C(\C=O)c2ccc(F)cc2)cc1`, the TGI was 80.6 µM.

Consider `C=C(C)C1Cc2c(cc(O)c3c(=O)c4ccccc4n(C)c23)O1` (stereo not drawn), for which the TGI is over 100 µM.

For another experiment, the system named is SN12K1 renal. The experiment can be described thus: inhibition of tumour cell growth, NCI panel, 48 h.
With `COC(=O)[C@@H]1c2cc3c(c(O)c2[C@@H](OC)C[C@@]1(C)O)C(=O)c1c(O)cc2c(c1C3=O)OC1O[C@@]2(C)[C@H](O)[C@@H](N(C)C)[C@@H]1O`, the TGI was 1.41 µM.

Turning to `CN(C)CCNCc1c2ccccc2c(CNCCN(C)C)c2ccccc12`, the TGI was 67.6 µM.

Regarding `O=[N+]([O-])c1ccc(/C=C/c2ccc(N=Nc3ccc(/C=C/c4ccc([N+](=O)[O-])cc4S(=O)(=O)O)c(S(=O)(=O)O)c3)cc2S(=O)(=O)O)c(S(=O)(=O)O)c1`, the TGI was over 100 µM.
